# In the supplement of paper PMC11451515:
# System: SEM cells
# Assay: cell viability relative to DMSO control; higher = less cytotoxic
# Settings: 48 h
# Outline: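 NOMO1 or SEM cells were plated at 500 cells/well and P12-Ichikawa cells at 1000 cells/well in 1536-well plates (5 μl), after each leukemia line had been adapted for at least four passages in each medium. Pin dosing delivered library compounds in DMSO at 11 threefold concentrations, 47 μM to 0.79 nM. CellTiter-Glo One luminescence was read after 48 h at 37°C. Viability is reported as a per-plate percentage of DMSO wells, with cell-free wells as background.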
# [1] = HPLM + 10% dialyzed FBS, 0.000781 µM
# [2] = HPLM + 10% dialyzed FBS, 0.00234 µM
# [3] = HPLM + 10% dialyzed FBS, 0.00702 µM
# [4] = HPLM + 10% dialyzed FBS, 0.0211 µM
# [5] = HPLM + 10% dialyzed FBS, 0.0632 µM
# [6] = HPLM + 10% dialyzed FBS, 0.19 µM
# [7] = HPLM + 10% dialyzed FBS, 0.569 µM
# [8] = HPLM + 10% dialyzed FBS, 1.71 µM
# [9] = HPLM + 10% dialyzed FBS, 5.12 µM
# [10] = HPLM + 10% dialyzed FBS, 15.4 µM
# [11] = HPLM + 10% dialyzed FBS, 46.1 µM
# [12] = RPMI 5 mM glucose + 10% FBS, 0.000781 µM
# [13] = RPMI 5 mM glucose + 10% FBS, 0.00234 µM
# [14] = RPMI 5 mM glucose + 10% FBS, 0.00702 µM
# [15] = RPMI 5 mM glucose + 10% FBS, 0.0211 µM
# [16] = RPMI 5 mM glucose + 10% FBS, 0.0632 µM
# [17] = RPMI 5 mM glucose + 10% FBS, 0.19 µM
# [18] = RPMI 5 mM glucose + 10% FBS, 0.569 µM
# [19] = RPMI 5 mM glucose + 10% FBS, 1.71 µM
# [20] = RPMI 5 mM glucose + 10% FBS, 5.12 µM
# [21] = RPMI 5 mM glucose + 10% FBS, 15.4 µM
# [22] = RPMI 5 mM glucose + 10% FBS, 46.1 µM
# [23] = RPMI 5 mM glucose + 10% dialyzed FBS, 0.000781 µM
# [24] = RPMI 5 mM glucose + 10% dialyzed FBS, 0.00234 µM
# [25] = RPMI 5 mM glucose + 10% dialyzed FBS, 0.00702 µM
# [26] = RPMI 5 mM glucose + 10% dialyzed FBS, 0.0211 µM
# [27] = RPMI 5 mM glucose + 10% dialyzed FBS, 0.0632 µM
# [28] = RPMI 5 mM glucose + 10% dialyzed FBS, 0.19 µM
# [29] = RPMI 5 mM glucose + 10% dialyzed FBS, 0.569 µM
# [30] = RPMI 5 mM glucose + 10% dialyzed FBS, 1.71 µM
# [31] = RPMI 5 mM glucose + 10% dialyzed FBS, 5.12 µM
# [32] = RPMI 5 mM glucose + 10% dialyzed FBS, 15.4 µM
# [33] = RPMI 5 mM glucose + 10% dialyzed FBS, 46.1 µM
Structure (SMILES),cell viability [1],cell viability [2],cell viability [3],cell viability [4],cell viability [5],cell viability [6],cell viability [7],cell viability [8],cell viability [9],cell viability [10],cell viability [11],cell viability [12],cell viability [13],cell viability [14],cell viability [15],cell viability [16],cell viability [17],cell viability [18],cell viability [19],cell viability [20],cell viability [21],cell viability [22],cell viability [23],cell viability [24],cell viability [25],cell viability [26],cell viability [27],cell viability [28],cell viability [29],cell viability [30],cell viability [31],cell viability [32],cell viability [33]
CC[C@H](CC#N)OC(=O)N[C@@H](C)c1cccc(NC(=O)Nc2ccc(-c3cnco3)c(OC)c2)c1,105%,98.7%,111%,119%,118%,86.2%,71.8%,74.8%,44.5%,30.3%,31.6%,108%,112%,114%,118%,112%,96%,76.3%,68%,47.7%,30.2%,18.1%,107%,110%,124%,105%,105%,112%,100%,99.6%,67.9%,43.3%,38.7%
O=C([O-])C(O)Cc1ccc(O)c(O)c1 (configuration not stated),93.4%,111%,93.6%,95.6%,96%,81.2%,79.2%,76.4%,71.2%,74.2%,55%,102%,111%,105%,96.8%,107%,96.3%,87.3%,76.2%,88.5%,75.7%,53.4%,93.7%,109%,101%,96%,79.8%,96.3%,69%,76.8%,60.4%,74.5%,50.4%
c1cncc(CN2CCC(n3ncc4c(N5CCOCC5)nc(-c5ccc6[nH]ccc6c5)nc43)CC2)c1,93.8%,88.8%,98.3%,90%,101%,81%,66.6%,69.2%,73.4%,58.9%,33.1%,123%,117%,111%,103%,105%,95.4%,68.2%,93%,80.3%,37.1%,11.6%,87.1%,88.4%,94.7%,87.2%,87.3%,96.4%,61.9%,76.2%,66.5%,32.6%,8.23%
CCC1(C)CC(=O)NC1=O (configuration not stated),107%,102%,109%,112%,114%,114%,106%,95.5%,110%,94.5%,81.7%,113%,101%,107%,107%,103%,106%,106%,93.7%,103%,92.3%,72.3%,93.7%,114%,117%,114%,116%,108%,110%,99.7%,108%,94%,74.3%
CC1CCC(C(=O)N(c2cc(C#CC(C)(C)C)sc2C(=O)O)C2CCC(O)CC2)CC1 (configuration not stated),106%,109%,99.2%,103%,98%,93.3%,89.1%,96%,77.3%,48.9%,44.2%,130%,119%,118%,129%,116%,115%,110%,123%,97.4%,61.1%,49.8%,91.7%,106%,90.3%,87.9%,90.3%,90.3%,96.6%,88.3%,77.6%,44.7%,41.8%
C#Cc1cccc(Nc2ncnc3cc(OCCOC)c(OCCOC)cc23)c1,93.5%,95.7%,90.4%,95.2%,102%,104%,92.9%,94.7%,71.5%,83%,32.9%,119%,133%,120%,128%,114%,119%,97.1%,115%,77.9%,107%,27.4%,86.8%,104%,90.5%,99.2%,90.2%,93.6%,87.5%,77.9%,59.7%,68.6%,19.9%
C[C@H]1[C@H](NC(=O)/C(=N/OC(C)(C)C(=O)O)c2csc(N)n2)C(=O)N1[S+](=O)([O-])O,89.9%,102%,100%,99.3%,95.2%,103%,100%,93.1%,104%,107%,86.1%,98.7%,103%,106%,106%,107%,88.3%,104%,110%,104%,101%,79.7%,106%,107%,121%,113%,110%,129%,114%,113%,105%,64.8%,88.2%
CC1=C(/C=C/C(C)=C/C=C/C(C)=C/C=C/C=C(C)/C=C/C=C(C)/C=C/C2=C(C)CCCC2(C)C)C(C)(C)CCC1,96.8%,101%,106%,113%,102%,108%,94.3%,110%,115%,95.4%,98.1%,93.1%,115%,105%,98.3%,106%,108%,94.2%,118%,119%,104%,99.4%,101%,100%,114%,106%,109%,105%,92.8%,125%,103%,119%,85.5%
CCC(C)SSc1ncc[nH]1 (configuration not stated),87.4%,90.2%,107%,101%,91%,97.5%,89%,36.2%,81.9%,57.8%,7.14%,93.9%,91.5%,88.7%,102%,92.7%,109%,93.8%,17.7%,82.9%,29.9%,6.98%,85.7%,75.8%,83.2%,83.9%,89.8%,108%,78.8%,27.2%,73.6%,10.3%,6.57%
[NH2][Pt]1([NH2])[O]CC(=O)[O]1,78.3%,95.6%,96.2%,92.2%,91.2%,102%,94.4%,97%,108%,96.7%,89.7%,104%,100%,110%,96.4%,108%,109%,95.5%,101%,103%,88.3%,96.3%,75.6%,84.2%,85.7%,83.6%,88.1%,87.7%,76.9%,94.9%,79%,91.5%,92.3%
C[C@@H](NC1=CC=CC=C1C(O)=O)C/2=C/C(=C\N3C(=O)/C=C(\N=C23)N4CCOCC4)C,69.7%,76.5%,91.3%,77.7%,87.8%,77.7%,84.3%,79.1%,61.1%,13.4%,19.8%,89.1%,92.3%,117%,92.8%,104%,90.6%,98.2%,87.5%,55%,8.88%,13.3%,65%,76.4%,91.7%,87%,92.7%,77.8%,70.3%,63.9%,44.1%,9.08%,11.2%
COC1=CC=CC=C1C2=CC=CC(=C2)C/3=C(O)/C4=CC(=C(Cl)C=C4NC3=O)C#N,79.2%,92.5%,88.2%,93.5%,101%,97.5%,92.1%,85.7%,39.6%,9.1%,4.47%,73.4%,89.9%,90.7%,103%,83%,81.3%,63.9%,48%,7.21%,4.33%,2.82%,87.3%,102%,92.9%,98.7%,93.4%,102%,93.4%,69%,21.6%,7.81%,3.41%
CCCCCOC(=O)NC\1=N\C(=O)N(\C=C1F)[C@@H]2O[C@H](C)[C@@H](O)[C@H]2O,94%,111%,116%,125%,109%,112%,120%,114%,106%,101%,100%,104%,89.8%,95.7%,109%,107%,88.7%,98.1%,98.1%,98.4%,94.4%,85.8%,96.6%,92.1%,105%,95.9%,106%,109%,95.6%,108%,96.8%,93.7%,86.2%
COc1cc2nc(N(C)CCCNC(=O)C3CCCO3)nc(N)c2cc1OC (configuration not stated),53.9%,66.5%,58.9%,80.3%,84.7%,84.9%,75.5%,89.3%,74.2%,79.2%,73.3%,60.7%,61.4%,64.1%,71.7%,87.1%,102%,82.9%,75.3%,73.4%,76.4%,62.2%,69.7%,67.7%,69.5%,97.7%,89%,93.7%,74.1%,87.3%,75%,77.4%,67.2%
